Source: patent publication US20250179589A1, “SYNTHETIC LETHALITY AND THE TREATMENT OF CANCER” (PACYLEX PHARMACEUTICALS INC., priority 2012, published 2025)

What was measured:
Fu plasma, human = format: in vitro ADME
Fu Brain = format: in vitro ADME
[1] = Intrinsic clearance Cli, rat; format: in vitro ADME
CYP450 2C19 = CYP450 2C19 (Homo sapiens, UniProt P33261); test: CYP450 inhibition; format: in vitro ADME; conditions: 2C19, at 1 uM
[2] = tested on: Ramos (Burkitt's lymphoma) cells; test: Trypan blue exclusion cell viability assay; format: cell-based, human; conditions: Homo sapiens, 72 h
Description: (§1) Cell viability assay. B and T cell viability was measured using the trypan blue exclusion method. Cells were grown in confluency conditions (2×10^6 cells/mL maximum) assuring the minimum basal apoptosis. […] Cell viability was quantified using the TC10™ automated cell counter (Biorad).
(§2) The drugs were dissolved in DMSO to make 100× stock solutions for each concentration tested, so that the final volume of DMSO in each well was 1%.
(§3) Cell viability was then quantified using the TC10™ automated cell counter (Biorad).

[3] = tested on: BL-2 (Burkitt's lymphoma) cells; test: Trypan blue exclusion cell viability assay; format: cell-based, human
Description: as §1, §2, §3

[4] = Intrinsic clearance Cli, mouse; format: in vitro ADME
hERG = hERG (Homo sapiens, UniProt Q12809); test: hERG (patch clamp); format: cell-based
hERG, sequence (Q12809 whole entry): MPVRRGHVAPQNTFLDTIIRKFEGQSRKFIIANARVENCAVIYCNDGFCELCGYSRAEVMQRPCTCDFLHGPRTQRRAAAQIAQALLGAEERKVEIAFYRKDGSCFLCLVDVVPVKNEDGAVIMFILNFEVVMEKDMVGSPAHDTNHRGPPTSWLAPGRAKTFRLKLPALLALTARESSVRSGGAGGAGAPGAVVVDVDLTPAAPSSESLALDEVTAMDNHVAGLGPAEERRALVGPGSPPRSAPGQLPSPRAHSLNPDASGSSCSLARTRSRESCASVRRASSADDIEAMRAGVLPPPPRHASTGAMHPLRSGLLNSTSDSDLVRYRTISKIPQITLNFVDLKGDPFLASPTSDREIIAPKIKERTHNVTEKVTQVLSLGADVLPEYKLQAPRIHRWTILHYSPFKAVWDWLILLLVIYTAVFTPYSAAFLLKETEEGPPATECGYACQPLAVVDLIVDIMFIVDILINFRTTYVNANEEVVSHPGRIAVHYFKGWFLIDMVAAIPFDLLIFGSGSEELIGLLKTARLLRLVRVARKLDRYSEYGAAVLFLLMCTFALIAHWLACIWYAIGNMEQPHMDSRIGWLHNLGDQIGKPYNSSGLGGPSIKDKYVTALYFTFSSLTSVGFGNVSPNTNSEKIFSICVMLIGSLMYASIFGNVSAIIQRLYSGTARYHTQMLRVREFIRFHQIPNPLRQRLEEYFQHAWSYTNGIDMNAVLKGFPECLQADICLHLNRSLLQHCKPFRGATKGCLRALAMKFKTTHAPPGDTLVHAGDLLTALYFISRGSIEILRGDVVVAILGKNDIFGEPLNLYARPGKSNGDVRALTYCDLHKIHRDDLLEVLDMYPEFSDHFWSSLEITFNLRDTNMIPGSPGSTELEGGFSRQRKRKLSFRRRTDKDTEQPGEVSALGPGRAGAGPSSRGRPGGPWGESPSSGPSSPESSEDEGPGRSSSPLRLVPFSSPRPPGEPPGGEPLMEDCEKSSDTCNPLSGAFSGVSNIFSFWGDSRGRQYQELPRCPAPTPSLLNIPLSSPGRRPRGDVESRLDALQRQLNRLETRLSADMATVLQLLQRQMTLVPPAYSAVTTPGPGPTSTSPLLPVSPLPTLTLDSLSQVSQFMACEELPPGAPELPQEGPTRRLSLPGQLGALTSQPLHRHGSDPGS

[5] = tested on: IM-9 ("normal" EBV immortalized B cell); test: Trypan blue exclusion cell viability assay; format: cell-based; conditions: Homo sapiens, IM-9 cells, 72 h
Description: as §1
(§4) […]. The drugs were dissolved in DMSO to make 100× stock solutions for each concentration tested, so that the final volume of DMSO in each well was 1%. The viability of cells treated with these inhibitors was measured with a trypan blue exclusion assay (Hudson, 1976).
as §3

[6] = tested on: KMH2 (Hodgkin's lymphoma) cells; test: Trypan blue exclusion cell viability assay; format: cell-based; conditions: Homo sapiens, KM-H2, 72 h
Description: as §1, §4, §3

[7] = Mouse PO pharmacokinetics 10 mg/kg; conditions: in vivo, PO 10 mg/kg, [ ] = range
[8] = Intrinsic clearance Cli, human; format: in vitro ADME
Pgp = target: T1, Pgp (Homo sapiens, UniProt P08183); test: Pgp efflux, Caco-2; format: in vitro ADME
T1 construct: endogenous in cells; host or cells: Caco-2
T1 sequence (P08183 whole entry): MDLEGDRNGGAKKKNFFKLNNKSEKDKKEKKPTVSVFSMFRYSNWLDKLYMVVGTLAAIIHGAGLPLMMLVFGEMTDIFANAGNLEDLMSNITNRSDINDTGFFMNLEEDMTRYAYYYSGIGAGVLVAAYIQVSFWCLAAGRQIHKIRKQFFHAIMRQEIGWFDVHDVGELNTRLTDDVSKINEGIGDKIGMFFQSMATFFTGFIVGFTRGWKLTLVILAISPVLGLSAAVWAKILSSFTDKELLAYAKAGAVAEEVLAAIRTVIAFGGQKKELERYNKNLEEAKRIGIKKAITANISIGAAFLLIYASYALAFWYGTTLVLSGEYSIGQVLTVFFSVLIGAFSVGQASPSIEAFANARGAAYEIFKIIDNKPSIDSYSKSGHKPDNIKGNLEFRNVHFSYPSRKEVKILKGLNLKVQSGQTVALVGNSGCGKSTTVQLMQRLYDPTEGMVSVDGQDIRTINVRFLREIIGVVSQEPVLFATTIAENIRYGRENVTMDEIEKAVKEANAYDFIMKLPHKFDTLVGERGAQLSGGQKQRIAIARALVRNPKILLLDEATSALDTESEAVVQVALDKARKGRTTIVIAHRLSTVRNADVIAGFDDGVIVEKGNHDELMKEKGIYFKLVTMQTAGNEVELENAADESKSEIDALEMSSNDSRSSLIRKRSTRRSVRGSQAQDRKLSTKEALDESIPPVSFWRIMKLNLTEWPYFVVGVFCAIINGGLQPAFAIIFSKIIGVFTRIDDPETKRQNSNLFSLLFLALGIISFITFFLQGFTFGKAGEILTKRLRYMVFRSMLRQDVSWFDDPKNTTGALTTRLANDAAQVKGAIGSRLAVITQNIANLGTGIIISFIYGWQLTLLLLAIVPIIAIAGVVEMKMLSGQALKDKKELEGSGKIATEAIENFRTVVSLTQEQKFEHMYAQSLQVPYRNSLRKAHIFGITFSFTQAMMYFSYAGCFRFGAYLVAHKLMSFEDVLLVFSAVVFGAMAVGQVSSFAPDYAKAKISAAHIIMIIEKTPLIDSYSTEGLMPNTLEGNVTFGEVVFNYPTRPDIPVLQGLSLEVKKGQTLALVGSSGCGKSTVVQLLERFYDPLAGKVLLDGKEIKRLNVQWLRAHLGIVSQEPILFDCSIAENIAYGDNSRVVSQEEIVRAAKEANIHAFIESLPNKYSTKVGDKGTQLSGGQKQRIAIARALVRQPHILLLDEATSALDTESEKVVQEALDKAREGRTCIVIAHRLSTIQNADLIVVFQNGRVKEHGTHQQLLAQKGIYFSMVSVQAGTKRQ

Caco-2 permeability Papp = format: in vitro ADME; conditions: human
[9] = Mouse IV pharmacokinetics; format: in vivo; conditions: whole blood, [ ] = range; for Vd: read-out: Vss
[10] = tested on: Ramos (Burkitt's lymphoma) cells; test: MTS cell viability assay; format: cell-based, human
Description: (§5) […]. The drugs were dissolved in DMSO to make 100× stock solutions for each concentration tested, so that the final volume of DMSO in each well was 1%. MTS [(3-(4,5-dimethylthiazol-2-yl)-5-(3-carboxymethoxyphenyl)-2-(4-sulfophenyl)-2H-tetrazolium)] assay was used to measure the cytotoxicity of the drug (Cory et al., 1991).
(§6) In FIG. 9, Panel B, DDD86481 was used to treat BL cells and control cell lines [IM9 (“normal” B lymphocyte) and KMH2 (HL cell line) that expresses both NMTs]. […]. The EC50 data are summarized as follows.

[11] = tested on: BL-2 (Burkitt's lymphoma) cells; test: MTS cell viability assay; format: cell-based, human
Description: as §5, §6

[12] = tested on: IM-9 ("normal" EBV immortalized B cell); test: MTS cell viability assay; format: cell-based; conditions: Homo sapiens
Description: as §5, §6

[13] = tested on: KMH2 (Hodgkin's lymphoma) cells; test: MTS cell viability assay; format: cell-based; conditions: Homo sapiens, KM-H2, 72 h
Description: as §5, §6

B:B Ratio = format: in vivo; conditions: brain / blood
BL (BL2 and Ramos) cells = test: Induction of apoptosis, PARP-1 and caspase-3 cleavage by western blotting; format: cell-based, human; conditions: BL cell lines, 72 h
Description: (§7) “Normal” immortalized B lymphocytes (IM9), KMH2 (Hodgkin's lymphoma) and BL (BL2 and Ramos) cells were incubated with increasing concentrations (nM) of DDD86481 and monitored the cleavage of poly-ADP-ribose polymerase-1 (PARP-1) and caspase-3 after the 72 h time point. Western blotting was performed on cell lysates to monitor the cleavage or PARP-1 and caspase-3 as well as the presence of GAPDH as loading control (composite gels).

[14] = tested on: KMH2 (Hodgkin's lymphoma) cells; test: as above; format: cell-based, human; conditions: KMH2, 72 h
Description: as §7

[15] = tested on: "Normal" immortalized B lymphocytes (IM9); test: as above; format: cell-based, human; conditions: IM9, 72 h
Description: as §7

Fu plasma, mouse = format: in vitro ADME
[16] = tested on: myristoylation in BL2 cells; test: Inhibition of myristoylation, alkynyl-myristate labeling and click chemistry; format: cell-based, human
Description: (§8) Cells were labeled with 100 to 25 μM ω-alkynyl myristic acid 30 min prior to harvesting the cells and lysed in 0.1% SDS-RIPA-HEPES buffer. Protein (50-30 μg) from the resulting cell lysates were reacted with 100 μM azido-biotin using click chemistry and processed as described previously (Yap et al., 2010). Briefly, cells were starved of fatty acids by incubating in media (RPMI or DMEM) which were supplemented with 5% dextran-coated charcoal-treated FBS (DCC-FBS) for 1 h prior to labeling. Next, ω-alkynyl-myristic acid was dissolved in DMSO to generate 25 or 100 mM stock solutions. Typically, the cellular uptake of ω-alkynyl myristic acid typically was improved with saponification and conjugation to BSA. Therefore, prior to labeling, ω-alkynyl myristic acid was saponified with 20% molar excess of potassium hydroxide at 65° C. for 15 min. Next, serum-free culture media (pre-warmed) containing 20% fatty acid-free BSA at 37° C. was added to the saponified ω-alkynyl myristic acid and incubated for an additional 15 min at 37° C.
(§9) Subsequently, cells deprived of fatty acids were washed once with warm PBS and incubated in fresh RPMI or DMEM without any supplements. Next, the appropriate volume of 20× fatty acid-BSA conjugate in serum-free media was added to the cells, to ensure that the final concentration of BSA was 1% and Q-alkynyl myristic acid was at the indicated concentration (25 μM or 100 μM) for each respective experiment. DMSO or unlabeled fatty acids conjugated to BSA were used as controls for the experiments performed. Cells were labeled with ω-alkynyl myristic acid for 30 min at 37° C. in a 5% CO2 humidified incubator prior to harvesting. Cells were harvested in 0.1% SDS-RIPA-HEPES buffer that was supplemented with 1× complete protease inhibitor (EDTA-free).
(§10) After labeling cells with ω-alkynyl myristic acid, the resulting lysates were subjected to click chemistry with azido-biotin to enable the detection of the myristoylated proteins by ECL as described previously (Yap et al., 2010). Typically, cell lysates (30-50 μg of protein) were adjusted to contain 1% SDS and incubated with 100 μM Tris-(benzyltriazolylmethyl)amine (TBTA), 1 mM CuSO4, 1 mM Tris-carboxyethylphosphine (TCEP), and 100 μM azido-biotin at 37° C. for 30 min in darkness, in order for the click reaction to proceed. Next, 10 volumes of ice-cold acetone was added to stop the click reaction and proteins were precipitated at −20° C. overnight. Subsequently, the acetone precipitated proteins were centrifuged at 16,000 g for 10 min, resuspended in 1×SDS-PAGE sample buffer with 20 mM DTT. […]
(§11) In FIG. 9 E, the minimal dose of DDD86481 required to inhibit myristoylation in IM-9, BL2 and Ramos cell lines, was determined. […]

[17] = tested on: myristoylation in IM-9 cells; test: as above; format: cell-based, human
Description: as §8, §9, §10, §11

[18] = tested on: myristoylation in Ramos cells; test: as above; format: cell-based, human; conditions: 2 h treatment
Description: as §8
Subsequently, cells deprived of fatty acids were washed once with warm PBS and incubated in fresh RPMI or DMEM without any supplements. […]
as §11

CYP450 2C19, sequence (P33261 whole entry): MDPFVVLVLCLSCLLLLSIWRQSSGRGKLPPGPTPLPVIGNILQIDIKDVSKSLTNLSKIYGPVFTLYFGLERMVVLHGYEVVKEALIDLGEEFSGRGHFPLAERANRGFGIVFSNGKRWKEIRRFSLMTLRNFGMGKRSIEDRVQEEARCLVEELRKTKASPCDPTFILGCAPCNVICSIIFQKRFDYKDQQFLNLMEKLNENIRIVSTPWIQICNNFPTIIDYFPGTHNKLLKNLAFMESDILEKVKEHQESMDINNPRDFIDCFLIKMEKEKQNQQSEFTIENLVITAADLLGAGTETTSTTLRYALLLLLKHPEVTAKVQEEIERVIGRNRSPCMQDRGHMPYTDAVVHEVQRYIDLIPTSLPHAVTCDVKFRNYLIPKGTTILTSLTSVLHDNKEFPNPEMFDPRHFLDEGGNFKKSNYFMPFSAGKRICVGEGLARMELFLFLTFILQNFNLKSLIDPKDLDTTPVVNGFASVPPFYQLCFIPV

With `Cc1nn(C)c(C)c1NS(=O)(=O)c1c(Cl)cc(-c2ccnc(N3CCNCC3)c2)cc1Cl` [DDD85646] the fraction unbound (Fu plasma, human) was 0.176, the fraction unbound (Fu Brain) was 0.068 and the “Cli Rat” value [1] was 0.5 mL/min/g. The CYP450 inhibition (CYP450 2C19) was 2C19 (19% at 1 uM), the EC50 [2] was 370 nM and the “times more sensitive than cells expressing both NMTs” value ([3]; BL-2 and Ramos vs immortalized "normal" B cells or KMH2, trypan blue) was 15-72 times. The EC50 ([3]; Homo sapiens, BL2, 72 h) was 430 nM, the “Cli Mouse” value [4] was 0.6 mL/min/g and the “hERG (patch clamp)” value (hERG) was 27.7. For the same compound, the EC50 [5] was 7080 nM, the EC50 [6] was 29600 nM and the Cmax [7] was 2690 ng/mL. For the same compound, the Tmax [7] was 0.25 h, the “Cli Human” value [8] was 1.2 mL/min/g and the Pgp (Pgp) was “YES (Efflux ratio =”. For the same compound, the Papp A→B (Caco-2 permeability Papp) was 4.3 ×10⁻⁶ cm/s, the half-life [9] was 1.3 h and the Vd [9] was 0.6 L/kg.
In the case of `Cc1c(NS(=O)(=O)c2c(Cl)cc(-c3ccnc(N4CCNCC4)c3)cc2Cl)c(CC(C)C)nn1C` [DDD86481], the EC90 ([10]; Homo sapiens, Ramos) is reported as 400 nM, the EC50 ([10]; Homo sapiens, Ramos, 72 h) is reported as 42 nM and the “factor by which cancer cells are preferentially killed” value ([10]; ratios of the EC50's and EC90's, normal B cell line vs Burkitt lymphoma cell lines) is reported as over 300 fold. For the same compound, the “times more sensitive than cells expressing both NMTs” value ([11]; BL-2 and Ramos vs immortalized "normal" B cells or KMH2, MTS) was 15-72 times, the EC90 ([11]; Homo sapiens, BL2) was 210 nM and the EC50 ([11]; Homo sapiens, BL2, 72 h) was 58 nM. It also gave an EC90 ([12]; IM-9, IM9 cells, calculated from FIG. 9B) of 134000 nM, an EC50 ([12]; IM-9 cells, 72 h, MTS) of 2200 nM and an EC50 [13] of 12600 nM. For the same compound, the Kp (B:B Ratio) was 0.04, the “PARP-1 and caspase-3 cleavage” value (BL (BL2 and Ramos) cells) was “occurred in a dose-dependent fashion” and the PARP-1 cleavage [14] was “observed at higher concentrations, although it was minimal”. The “PARP-1 and caspase-3 cleavage” value [15] was “No PARP-1 or caspase-3 cleavage was observed”, the “Cli Rat” value [1] was 1.0 mL/min/g and the “Cli Mouse” value [4] was under 0.5 mL/min/g. For the same compound, the fraction unbound (Fu plasma, mouse) was 0.067, the Cmax [7] was 11200 ng/mL and the Tmax [7] was 2 h. The half-life [7] was 5.7 h, the “Cli Human” value [8] was 0.7 mL/min/g and the inhibition of myristoylation ([16]; BL2, 1 μM, after one hour of treatment) was “nearly complete inhibition of myristoylation”. For the same compound, the “minimal dose at which incorporation of alkyne-myristate label decreases” value ([16]; BL-2, 2 h treatment) was 50 nM, the inhibition of myristoylation ([17]; IM-9, 1 μM, after one hour of treatment) was “nearly complete inhibition of myristoylation” and the “minimal dose at which incorporation of alkyne-myristate label decreases” value ([17]; IM-9, 2 h treatment) was 100 nM. The half-life [9] was 1.5 h, the Vd [9] was 0.4 L/kg and the “minimal dose at which incorporation of alkyne-myristate label decreases” value [18] was 50 nM.
